Experimental data as given in US20210330578A1, “TOPICAL COSMETIC COMPOSITIONS” (Mary Kay Inc., priority 2020, published 2021).

System: filaggrin
Assay: Filaggrin protein expression in keratinocytes (PROTEINSIMPLE SIMON western blotting bioassay)
Format: cell-based, human
Conditions: 1% tested, 24 to 36 hours
Protocol: Changes in the production of filaggrin in keratinocytes due to each of the active ingredients, any one of the combination of ingredients, or compositions having said combinations disclosed in the specification can be measured. Filaggrin is the precursor to Natural Moisturizing Factor (NMF) in the skin. Increased NMF increases the moisture content of the skin.
Filaggrin production in treated and non-treated keratinocytes was determined using the PROTEINSIMPLE® SIMON™ western blotting bioassay that employs an antibody specific for filaggrin to quantitatively detect filaggrin concentration in keratinocyte cell lysates. The treated group of keratinocytes was treated with 1% of calcium or an extract of Laminaria saccharina, marine plankton, Opuntia ficus-indica, Imperata cylindrical, or Verbena officinalis (1%).
For each sample, normal human epidermal keratinocytes (NHEK) were grown in EPI-200—Mattek EPILIFE™ growth media with calcium from Life Technologies (M-EP-500-CA). […] The protein concentrations of the samples were determined and used to normalize the samples. The lysates were stored at −80° C. until used in the quantification assay. […] The chemiluminescent development was stopped at a specific time and the intensity of the chemiluminescent signal was measured (reported as Area Under Curve, AUC in Table 3 below) and compared to controls.

[Ca+2] [Calcium]
% Ctrl (increase in filaggrin protein expression) (NHEK, compared to controls): 15.60%
AUC (intensity of the chemiluminescent signal, filaggrin) (normal human epidermal keratinocytes (NHEK), control AUC 70848): 81899
